This is an account of results in PubChem BioAssay AID266 (DTP/NCI, 2004).

This assay relates to Nude mice, LX-1 lung xenograft intrarenal, tumor weight T/C. The assay can be described thus: NCI In Vivo Anticancer Drug Screen. Data for tumor model Human Lung LX-1 Xenograft (intrarenal inoculation) in NU/NU BALB/C (nude) mice. The note with it: endpoint: mean tumor weight change, higher = larger tumour. Here is the method:
The antitumor activity of compounds was measured in mice bearing transplantable tumors. Survival or tumor size were measured and the results are expressed as the measurement made in the treated group (T) divided by the measurement made in the vehicle treated control group (C). The tumor model used in this assay is Human Lung LX-1 Xenograft (intrarenal inoculation) in NU/NU BALB/C (nude) mice

Where [1] appears, read: dose: 37.5 mg/kg/injection, schedule: Q04DX003 (sc), vehicle: saline.
The mark [2] stands for this setting: dose: 75.0 mg/kg/injection, schedule: Q04DX003 (sc), vehicle: saline.
Where [3] appears, read: dose: 150.0 mg/kg/injection, schedule: Q04DX003 (sc), vehicle: saline.
Setting [4] is: dose: 50.0 mg/kg/injection, schedule: Q01DX010 (sc), vehicle: saline.
[5] abbreviates: dose: 100.0 mg/kg/injection, schedule: Q01DX010 (sc), vehicle: saline.
[6] abbreviates: dose: 300.0 mg/kg/injection, schedule: Q04DX003 (sc), vehicle: Klucel (hydroxypropylcellulose) (HPC).
The mark [7] stands for this setting: dose: 600.0 mg/kg/injection, schedule: Q04DX003 (sc), vehicle: Klucel (hydroxypropylcellulose) (HPC).
[8] abbreviates: dose: 1200.0 mg/kg/injection, schedule: Q04DX003 (sc), vehicle: Klucel (hydroxypropylcellulose) (HPC).
Setting [9] is: dose: 2400.0 mg/kg/injection, schedule: Q04DX003 (sc), vehicle: Klucel (hydroxypropylcellulose) (HPC).

Records with an inconclusive call do not appear.

Regarding `COc1cccc2c1C(=O)c1c(O)c3c(c(O)c1C2=O)C[C@@](O)(C(C)=O)C[C@@H]3OC1CC(N)C(O)C(C)O1` (some centres undefined), the T/C is, setting by setting: (dose: 2.0 mg/kg/injection, schedule: Q01DX010 (sc), vehicle: saline) 109 % of control; (dose: 4.0 mg/kg/injection, schedule: Q01DX010 (sc), vehicle: saline) 153 % of control; (dose: 8.0 mg/kg/injection, schedule: Q01DX010 (sc), vehicle: saline) 31 % of control.

Consider `CN(CCN(C)C(=O)CCOS(C)(=O)=O)C(=O)CCOS(C)(=O)=O`, for which the T/C under setting [1] is 90 % of control; the T/C under setting [2] is 91 % of control; the T/C under setting [3] was 86 % of control; the T/C (dose: 300.0 mg/kg/injection, schedule: Q04DX003 (sc), vehicle: saline) is 36 % of control.

With `CNC(=O)ON(C(C)=O)C(=O)NC`, the T/C reads like this: (dose: 25.0 mg/kg/injection, schedule: Q01DX010 (sc), vehicle: saline) 49 % of control; under setting [4], 85 % of control; under setting [5], 41 % of control.

With `CCN(CC)CCNc1ccc(C)c2sc3ccccc3c(=O)c12`, under setting [4], the T/C is 211 % of control.

For the compound `[Na+]`, the T/C is 68 % of control (dose: 150.0 mg/kg/injection, schedule: Q04DX003 (ip), vehicle: water); 82 % of control (dose: 600.0 mg/kg/injection, schedule: Q04DX003 (ip), vehicle: water); 79 % of control (dose: 1200.0 mg/kg/injection, schedule: Q04DX003 (ip), vehicle: water).

For `CC(C)CCCCCCCCCCCCC(=O)NCC(=O)NC1C(C)OC(Nc2ncnc3nc[nH]c23)C(O)C1O` (centres undefined), the T/C was 69 % of control (dose: 2.0 mg/kg/injection, schedule: Q01DX010 (sc), vehicle: saline with Tween-80); 40 % of control (dose: 4.0 mg/kg/injection, schedule: Q01DX010 (sc), vehicle: saline with Tween-80); 32 % of control (dose: 8.0 mg/kg/injection, schedule: Q01DX010 (sc), vehicle: saline with Tween-80); 17 % of control (dose: 16.0 mg/kg/injection, schedule: Q01DX010 (sc), vehicle: saline with Tween-80).

`CN1c2c(nc(N)[nH]c2=O)NCC1CCNc1ccc(C(=O)NC(CCC(=O)O)C(=O)O)cc1` (centres undefined): the T/C was 56 % of control under setting [5]; 28 % of control (dose: 200.0 mg/kg/injection, schedule: Q01DX010 (sc), vehicle: saline); 49 % of control (dose: 400.0 mg/kg/injection, schedule: Q01DX010 (sc), vehicle: saline); 34 % of control (dose: 800.0 mg/kg/injection, schedule: Q01DX010 (sc), vehicle: saline).

With `COc1ccc2ccccc2c1C1NC(=O)c2ccccc2N1` (centres undefined), the T/C was 113 % of control under setting [6], 78 % of control under setting [7], 83 % of control under setting [8] and 83 % of control under setting [9].

As for `c1ccc2c(c1)[As]=c1ccccc1=[As]2` (centres undefined), the T/C is 58 % of control (dose: 18.75 mg/kg/injection, schedule: Q04DX003 (sc), vehicle: saline); 46 % of control under setting [1]; 50 % of control under setting [2]; 40 % of control under setting [3].

For `O=Cc1ccc(C=O)c(Cl)c1`, the T/C is, setting by setting: under setting [6], 81 % of control; under setting [7], 88 % of control; under setting [8], 79 % of control; under setting [9], 152 % of control.
